Tested on: P12-Ichikawa
Assay: cell viability relative to DMSO control; higher = less cytotoxic
Settings: 48 h
Method in brief: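 Viability is a per-plate percentage relative to DMSO wells, with cell-free wells as background. CellTiter-Glo One luminescence was read after 48 h at 37°C on 1536-well plates (5 μl) of NOMO1 or SEM (500 cells/well) or P12-Ichikawa (1000 cells/well) leukemia cells. The cells had been adapted for at least four passages in each medium and pin-dosed with library compounds in DMSO from 47 μM to 0.79 nM in 11 threefold steps.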

[1] = HPLM + 10% dialyzed FBS, 0.000781 µM
[2] = HPLM + 10% dialyzed FBS, 0.00234 µM
[3] = HPLM + 10% dialyzed FBS, 0.00702 µM
[4] = HPLM + 10% dialyzed FBS, 0.0211 µM
[5] = HPLM + 10% dialyzed FBS, 0.0632 µM
[6] = HPLM + 10% dialyzed FBS, 0.19 µM
[7] = HPLM + 10% dialyzed FBS, 0.569 µM
[8] = HPLM + 10% dialyzed FBS, 1.71 µM
[9] = HPLM + 10% dialyzed FBS, 5.12 µM
[10] = HPLM + 10% dialyzed FBS, 15.4 µM
[11] = HPLM + 10% dialyzed FBS, 46.1 µM
[12] = RPMI 5 mM glucose + 10% FBS, 0.000781 µM
[13] = RPMI 5 mM glucose + 10% FBS, 0.00234 µM
[14] = RPMI 5 mM glucose + 10% FBS, 0.00702 µM
[15] = RPMI 5 mM glucose + 10% FBS, 0.0211 µM
[16] = RPMI 5 mM glucose + 10% FBS, 0.0632 µM
[17] = RPMI 5 mM glucose + 10% FBS, 0.19 µM
[18] = RPMI 5 mM glucose + 10% FBS, 0.569 µM
[19] = RPMI 5 mM glucose + 10% FBS, 1.71 µM
[20] = RPMI 5 mM glucose + 10% FBS, 5.12 µM
[21] = RPMI 5 mM glucose + 10% FBS, 15.4 µM
[22] = RPMI 5 mM glucose + 10% FBS, 46.1 µM
[23] = RPMI 5 mM glucose + 10% dialyzed FBS, 0.000781 µM
[24] = RPMI 5 mM glucose + 10% dialyzed FBS, 0.00234 µM
[25] = RPMI 5 mM glucose + 10% dialyzed FBS, 0.00702 µM
[26] = RPMI 5 mM glucose + 10% dialyzed FBS, 0.0211 µM
[27] = RPMI 5 mM glucose + 10% dialyzed FBS, 0.0632 µM
[28] = RPMI 5 mM glucose + 10% dialyzed FBS, 0.19 µM
[29] = RPMI 5 mM glucose + 10% dialyzed FBS, 0.569 µM
[30] = RPMI 5 mM glucose + 10% dialyzed FBS, 1.71 µM
[31] = RPMI 5 mM glucose + 10% dialyzed FBS, 5.12 µM
[32] = RPMI 5 mM glucose + 10% dialyzed FBS, 15.4 µM
[33] = RPMI 5 mM glucose + 10% dialyzed FBS, 46.1 µM

In the case of `CCc1ccc(CCOc2ccc(CC3SC(=O)NC3=O)cc2)nc1` (stereo not drawn), the cell viability [1] is reported as 121%, the cell viability [2] is reported as 118% and the cell viability [3] is reported as 123%. It also gave a cell viability [4] of 117%, a cell viability [5] of 116% and a cell viability [6] of 113%. For the same compound, the cell viability [7] was 113%, the cell viability [8] was 113% and the cell viability [9] was 108%. The cell viability [10] was 108%, the cell viability [11] was 108% and the cell viability [12] was 118%. It also gave a cell viability [13] of 112%, a cell viability [14] of 118% and a cell viability [15] of 115%. It also gave a cell viability [16] of 117%, a cell viability [17] of 112% and a cell viability [18] of 127%. The cell viability [19] was 119%, the cell viability [20] was 109% and the cell viability [21] was 118%. For the same compound, the cell viability [22] was 119%, the cell viability [23] was 123% and the cell viability [24] was 118%. The cell viability [25] was 129%, the cell viability [26] was 120% and the cell viability [27] was 126%. The cell viability [28] was 116%, the cell viability [29] was 114% and the cell viability [30] was 121%. The cell viability [31] was 120%, the cell viability [32] was 111% and the cell viability [33] was 100%.
`CN(C)[S+](=O)([O-])c1ccc2c(c1)C(=Cc1cc3c([nH]1)CCCC3)C(=O)N2` gave a cell viability [1] of 124%, a cell viability [2] of 114% and a cell viability [3] of 122%. It also gave a cell viability [4] of 121%, a cell viability [5] of 123% and a cell viability [6] of 117%. The cell viability [7] was 125%, the cell viability [8] was 122% and the cell viability [9] was 111%. It also gave a cell viability [10] of 110%, a cell viability [11] of 112% and a cell viability [23] of 118%. The cell viability [24] was 125%, the cell viability [25] was 121% and the cell viability [26] was 116%. For the same compound, the cell viability [27] was 114%, the cell viability [28] was 125% and the cell viability [29] was 128%. It also gave a cell viability [30] of 124%, a cell viability [31] of 122% and a cell viability [32] of 106%. The cell viability [33] was 108%.
`FC1=CC=C(C=C1)N2/C=C\C=C(C(=O)NC3=CC=C(OC4=C5C=C[NH]C5=NC=C4)C(=C3)F)/C2=O` showed a cell viability [1] of 99%, a cell viability [2] of 111% and a cell viability [3] of 107%. It also gave a cell viability [4] of 114%, a cell viability [5] of 117% and a cell viability [6] of 118%. For the same compound, the cell viability [7] was 122%, the cell viability [8] was 112% and the cell viability [9] was 114%. For the same compound, the cell viability [10] was 123%, the cell viability [11] was 115% and the cell viability [12] was 104%. It also gave a cell viability [13] of 111%, a cell viability [14] of 121% and a cell viability [15] of 112%. The cell viability [16] was 132%, the cell viability [17] was 119% and the cell viability [18] was 128%. For the same compound, the cell viability [19] was 122%, the cell viability [20] was 127% and the cell viability [21] was 119%. The cell viability [22] was 111%, the cell viability [23] was 109% and the cell viability [24] was 107%. The cell viability [25] was 114%, the cell viability [26] was 125% and the cell viability [27] was 117%. The cell viability [28] was 124%, the cell viability [29] was 125% and the cell viability [30] was 119%. The cell viability [31] was 129%, the cell viability [32] was 120% and the cell viability [33] was 114%.
`O=C1c2ccccc2-[n+]2ccc3c([nH]c4ccccc43)c21` showed a cell viability [1] of 101%, a cell viability [2] of 108% and a cell viability [3] of 112%. For the same compound, the cell viability [4] was 105%, the cell viability [5] was 105% and the cell viability [6] was 106%. The cell viability [7] was 101%, the cell viability [8] was 105% and the cell viability [9] was 95.4%. The cell viability [10] was 2.96%, the cell viability [11] was 3.56% and the cell viability [12] was 98.1%. It also gave a cell viability [13] of 106%, a cell viability [14] of 105% and a cell viability [15] of 114%. It also gave a cell viability [16] of 104%, a cell viability [17] of 107% and a cell viability [18] of 107%. The cell viability [19] was 112%, the cell viability [20] was 101% and the cell viability [21] was 2.99%. The cell viability [22] was 2.29%, the cell viability [23] was 102% and the cell viability [24] was 115%. For the same compound, the cell viability [25] was 111%, the cell viability [26] was 108% and the cell viability [27] was 107%. For the same compound, the cell viability [28] was 111%, the cell viability [29] was 100% and the cell viability [30] was 113%. The cell viability [31] was 107%, the cell viability [32] was 3.39% and the cell viability [33] was 2.85%.
`CN1CCN(C2=Nc3cc(Cl)ccc3Nc3ccccc32)CC1` showed a cell viability [1] of 102%, a cell viability [2] of 105% and a cell viability [3] of 108%. For the same compound, the cell viability [4] was 108%, the cell viability [5] was 91.6% and the cell viability [6] was 115%. The cell viability [7] was 116%, the cell viability [8] was 116% and the cell viability [9] was 106%. For the same compound, the cell viability [10] was 104%, the cell viability [11] was 94.4% and the cell viability [12] was 91.6%. For the same compound, the cell viability [13] was 120%, the cell viability [14] was 115% and the cell viability [15] was 120%. It also gave a cell viability [16] of 95.8%, a cell viability [17] of 125% and a cell viability [18] of 107%. For the same compound, the cell viability [19] was 115%, the cell viability [20] was 124% and the cell viability [21] was 108%. For the same compound, the cell viability [22] was 108%, the cell viability [23] was 100% and the cell viability [24] was 103%. The cell viability [25] was 103%, the cell viability [26] was 102% and the cell viability [27] was 96.7%. It also gave a cell viability [28] of 112%, a cell viability [29] of 109% and a cell viability [30] of 116%. It also gave a cell viability [31] of 105%, a cell viability [32] of 108% and a cell viability [33] of 93.2%.
Work on `O=c1[nH]c(=O)n([C@H]2C[C@H](O)[C@@H](CO)O2)cc1/C=C/Br` yielded a cell viability [1] of 103%, a cell viability [2] of 126% and a cell viability [3] of 105%. It also gave a cell viability [4] of 115%, a cell viability [5] of 102% and a cell viability [6] of 61.2%. The cell viability [7] was 60.8%, the cell viability [8] was 70% and the cell viability [9] was 75.8%. For the same compound, the cell viability [10] was 61.4%, the cell viability [11] was 47.8% and the cell viability [12] was 97.6%. It also gave a cell viability [13] of 107%, a cell viability [14] of 103% and a cell viability [15] of 103%. It also gave a cell viability [16] of 105%, a cell viability [17] of 110% and a cell viability [18] of 108%. For the same compound, the cell viability [19] was 106%, the cell viability [20] was 107% and the cell viability [21] was 110%. It also gave a cell viability [22] of 106%, a cell viability [23] of 92.6% and a cell viability [24] of 104%. It also gave a cell viability [25] of 109%, a cell viability [26] of 118% and a cell viability [27] of 112%. The cell viability [28] was 106%, the cell viability [29] was 103% and the cell viability [30] was 108%. For the same compound, the cell viability [31] was 108%, the cell viability [32] was 102% and the cell viability [33] was 100%.
In the case of `CNC(=O)c1ccc(N2C(=S)N(c3cnc(C#N)c(C(F)(F)F)c3)C(=O)C23CCC3)cc1F`, the cell viability [1] is reported as 94.2%, the cell viability [2] is reported as 109% and the cell viability [3] is reported as 109%. It also gave a cell viability [4] of 109%, a cell viability [5] of 112% and a cell viability [6] of 111%. It also gave a cell viability [7] of 111%, a cell viability [8] of 114% and a cell viability [9] of 109%. It also gave a cell viability [10] of 95%, a cell viability [11] of 96.3% and a cell viability [12] of 86.7%. The cell viability [13] was 95.7%, the cell viability [14] was 97.5% and the cell viability [15] was 106%. For the same compound, the cell viability [16] was 109%, the cell viability [17] was 107% and the cell viability [18] was 117%. The cell viability [19] was 113%, the cell viability [20] was 111% and the cell viability [21] was 92.8%. For the same compound, the cell viability [22] was 96.1%, the cell viability [23] was 90.5% and the cell viability [24] was 111%. The cell viability [25] was 118%, the cell viability [26] was 118% and the cell viability [27] was 118%. For the same compound, the cell viability [28] was 119%, the cell viability [29] was 116% and the cell viability [30] was 123%. The cell viability [31] was 126%, the cell viability [32] was 128% and the cell viability [33] was 101%.
`CC(C)(C)OC(=O)N[C@H]1CCCCC/C=C\[C@@H]2C[C@@]2(C(=O)N[S+](=O)([O-])C2CC2)NC(=O)[C@@H]2C[C@@H](OC(=O)N3Cc4cccc(F)c4C3)CN2C1=O` gave a cell viability [1] of 108%, a cell viability [2] of 114% and a cell viability [3] of 108%. The cell viability [4] was 109%, the cell viability [5] was 112% and the cell viability [6] was 114%. The cell viability [7] was 115%, the cell viability [8] was 111% and the cell viability [9] was 108%. It also gave a cell viability [10] of 104%, a cell viability [11] of 87.1% and a cell viability [12] of 110%. For the same compound, the cell viability [13] was 108%, the cell viability [14] was 110% and the cell viability [15] was 108%. The cell viability [16] was 114%, the cell viability [17] was 112% and the cell viability [18] was 125%. It also gave a cell viability [19] of 114%, a cell viability [20] of 113% and a cell viability [21] of 104%. The cell viability [22] was 82.1%, the cell viability [23] was 95.2% and the cell viability [24] was 104%. The cell viability [25] was 117%, the cell viability [26] was 94.3% and the cell viability [27] was 105%. For the same compound, the cell viability [28] was 104%, the cell viability [29] was 112% and the cell viability [30] was 106%. The cell viability [31] was 94.2%, the cell viability [32] was 89.3% and the cell viability [33] was 80.5%.

— the supplement of paper PMC11451515
